Patent US9802897B2, “Amidopyridinol derivative or pharmaceutically acceptable salt thereof and pharmaceutical composition comprising same as active component” (Research Cooperation Foundation of Yeungnam University, priority 2013, dated 2017)

Tested on: TNBS-induced colitis
Experiment: TNBS-induced colitis model of inflammatory bowel disease
Format: in vivo, rat (Sprague Dawley)
Excerpt: To see alleviating effects of the compounds of the present invention on colitis, an animal model induced by TNBS and having colitis was used for the experiments. The animal used herein was a 7 to 8 week Sprague Dawley species purchased from Samtaco Bio Korea. After the purchase, the animal was stabilized with typical solid feed for 2 days before being used for the experiments. The animal was freely supplied with feed and water during the experiments, and stayed in conditions maintaining a cage temperature of about 25±1° C. and relative humidity of about 50±10%. The cage was equipped with an automatic lightening system to adjust 12-hour light-dark cycle.
In regard to the experimental groups, 5 groups (i.e., a control group, a group administered with TNBS only, […], […], […]) were used according to the randomized block design, wherein each group consists of 6 rats having an average weight of about 180±10 g. The rats that had been fasting for 24 hours were anesthetized with diethylether (Et2O), and then, a 1 mL syringe connected with a polyethylene catheter was used to slowly inject 0.8 mL of 3% TNBS into colonic enema through the anus, wherein TNBS was diluted with 50% (v/v) ethanol. To prevent leakage of 3% TNBS from the anus, the rats turned upside down and let stand for 60 minutes.
In regard to the control group, only a vehicle (50% (v/v) ethanol) was injected into the rats of the control group in the same manner as in preparation of other experimental groups. To examine the effects of the drug, after being fasting for 24 hours, the rats were administered with drugs, i.e., 0.1 mg/kg or 1.0 mg/kg of Compounds 8a and 8j, once a day at a certain time from the second day to the fifth day of the TNBS treatment. As a comparative experimental material, 5-ASA, which is an active metabolite of sulfasalazine that is the most well-known as a therapeutic agent for IBDs, was used as a positive control group.
All the rats were scarified on the seventh day of the TNBS administration. […] After the large intestine of the rat was harvested, a 5 to 6 cm-long tissue from was cut from the anus to a size of 1 cm, and then, subjected to measure an intestine weight and activation of myeloperoxidase (MPO) in the tissue, and to perform a biopsy. In addition, changes in weight of all the animals used in the experiments were observed by using a digital mass meter, beginning from the fasting step, the TNBS administration, and the drug administration. In consideration of the management and use of laboratory animals, the animal experiments were followed according to institutional guidelines from Laboratory Animal Resources, Yeungnam University.
To measure the activation of MPO, an MPO assay was used. The colorectal tissue was washed with cold PBS, and a weight thereof was measured. Then, 200 μL of lysis buffer (pH7.4, 200 mM NaCl, 5 mM EDTA, 10 mM Tris, 10% glycerol) was added for each 10 mg of the weight of the tissue, and then, the tissue homogenizer (Bio homogenizer M133, BIOSPEC PRODUCTS Inc. USA) was used for 30 seconds in terms of homogenization. The homogenized sample was subjected to centrifugation (1500×g) twice, each for 15 minutes. The supernatant obtained therefrom was used to measure the activation of MPO by using the MPO ELISA kit (HK210, Hycult Biotechnology, Netherlands). 100 μL of the supernatant was added to the 96-well plates, each of which well was coated with an anti-mouse MPO antibody, to allow a reaction at room temperature for 1 hour, followed by being washed with PBS three times. Here, 100 μL of a reconstituted tracer was added thereto to allow a reaction at room temperature for 1 hour, followed by being washed three times repeatedly. Then, 100 μL of a reptavidin-peroxidase conjugate was added thereto to allow a reaction at room temperature for 1 hours, followed being washed. Then, 100 μL of a TMB substrate solution was added thereto to allow a reaction for 30 minutes. […]

SMILES: CC(=O)Nc1nc(C)c(O)c(C)c1C [Compound 8a, N-(5-hydroxy-3,4,6-trimethylpyridine-2-yl)acetamide]
- changes in weights of the rat (1.0 mg/kg once a day, TNBS-induced rats): excellent recovery of the weight compared to the group treated with 5-ASA
- conditions of the large intestine observed with the naked eye (1.0 mg/kg, TNBS-induced rats): excellent inhibitory effects on swelling and congestion
- weight of the large intestine (1.0 mg/kg, vs TNBS-treated group): significantly decreased
- activation of myeloperoxidase (MPO) in colorectal tissue (1.0 mg/kg, vs group treated with TNBS only): lower activation of MPO
